Test results taken from patent publication EP4608400B1, “COMPOUND FOR TREATMENT OF PAIN” (Initiator Pharma A/S, priority 2022, dated 2024).
“Also recorded” adds a separate entry of the source. Like-named read-outs stand apart in the source and are kept apart here.

Experiments:
[1] = target: T1, dopamine transporter (DAT) (Homo sapiens, UniProt Q01959); assay: Inhibition of human transporter in stable epithelial cell lines (DAT); type: cell-based; details: average of two replicates (n=2)
T1 construct: expressed in transfected cells
Description: Compounds were tested for their ability to inhibit the reuptake of the monoamine neurotransmitters dopamine (DA), noradrenaline (NA), and serotonin (5-HT) in synaptosomes as described in WO 97/16451 (NeuroSearch A/S). In addition, the compounds were tested in human epithelial cells expressing human transporters for 5-HT (SERT), dopamine (DAT), and norepinephrine (NET).
The results are the average of two-replicates per experiment (n=2).

[2] = test system: formalin-induced flinching behaviour; assay: Automated rat formalin test of persistent nociceptive pain; type: in vivo, Sprague-Dawley rats
Description: All treatments were administered s.c. in a dosing volume of 2 ml/kg 60 min prior to formalin injection.
Adult male Sprague-Dawley rats (Harlan Scandinavia, Alleroed, Denmark) were used. They were housed in Macrolon III cages (20 x 14 x 18 cm or 20 x 40 x18 cm; in groups of 2-5 per cage according to weight) containing wood-chip bedding material (3 x 1 x 4 mm). The environment was temperature (20 ± 2°C) and humidity (55 ± 15%) controlled and consisted of a light-dark cycle of 13:11 h (lights on at 06.00 h and off at 19.00 h). Food (Altromin®) and water were available ad libitum. The rats were allowed to habituate to the housing facilities for at least one week prior to being randomly assigned to behavioural experiments. At the end of each experiment rats were euthanized by cervical dislocation. All experiments were performed according to the Ethical Guidelines of the International Association for the Study of Pain (Zimmermann, 1983) and the Danish Committee for Experiments on Animals.
As highlighted in the Procedures section below 4 rats were included in each automated testing session. 4 individual treatments were assessed during the session and treatments were rotated to minimise bias associated with a particular testing chamber. […]
Assessment of formalin-induced flinching behaviour in normal, uninjured rats (body weight 180-220 g) was made with the use of an Automated Nociception Analyser (University of California, San Diego, CA; Yaksh et al., 2001). […] They were then returned to their separate observation chambers, each of which were in turn situated upon an enclosed detection device consisting of two electromagnetic coils designed to produce an electromagnetic field in which movement of the metal band could be detected. […] In an initial formalin concentration response study, five phases of nociceptive behaviour were identified and scored according to Yaksh et al., (2001); first phase (P1=0-5 min), interphase (Int=6-15 min), early second phase (P2A=16-40 min), late second phase (P2B=41-60 min) and entire second phase (P2A+P2B=16-60 min). […]

[3] = Phase I ascending single oral dose study: pharmacokinetics; type: in vivo, human; details: for Tmax / half-life: human, in vivo, po; for Tmax: single oral dose, postdose
Description: Study design. The study was a Phase I, randomised, double-blind, placebo-controlled, ascending single oral dose, safety, tolerability, pharmacokinetic (PK) and pharmacodynamics (PD) study of IP2015 in healthy male subjects.
Each subject received one oral dose of IP2015 or matched placebo. […] The dose level was to be escalated to a maximum of 0.05 mg in Cohort 2 and a maximum of 0.2 mg in Cohort 3. The doses in the remaining five cohorts were to be determined based on the dose escalation criteria.
Subjects were required to attend the clinical research unit (CRU) for a screening visit within 28 days prior to dosing. […] All subjects remained in the CRU until Day 3 (48 hours postdose) for the collection of safety assessments, PK blood and urine samples, and CNS assessments.
Study Drug, Dose and Mode of Administration. IP2015 and matched placebo were provided as a powder in bottles for oral solution. […] Reconstitution was performed by a pharmacist at the clinical site prior to dosing.
The dose was taken with 240 mL of water at room temperature. Subjects/participants were fasted overnight prior to dosing until 4 hours postdose. Water was allowed ad libitum except for 1 hour before and 1 hour after dosing.
The doses used in each cohort were as follows: • Cohort 1 - 0.01 mg • Cohort 2 - 0.05 mg • Cohort 3 - 0.2 mg • Cohort 4 - 0.6 mg • Cohort 5 - 1.8 mg • Cohort 6 - 5.4 mg • Cohort 7 - 16.2 mg • Cohort 8 - 10 mg
The study also evaluated plasma PK concentrations and parameters including but not limited to: area under the plasma concentration vs time curve (AUC), from time zero to the last quantifiable concentration (AUC0-t), AUC from zero to infinity (AUC0-∞), observed maximum plasma concentration (Cmax), time to reach maximum plasma concentration (tmax) and terminal elimination half-life (T1/2) in healthy male subjects.
Statistical methods. Safety parameters were listed and summarised using descriptive statistics. Pharmacokinetic parameter estimates were calculated using noncompartmental methods. Pharmacokinetic data were listed for each subject/patient and summarised by descriptive statistics.
Dose proportionality was analysed for Part A with a linear regression model using the logarithm of a PK parameter as responsible variable and the logarithm of the dose as the independent variable. The linear regression model can be expressed as: Log(yi) = α + β*log dosei + εi [formula] where α is the intercept, dosei is the actual dose of IP2015 for the ith subject and εi is the (within subject) random error in observing yi.
The above model was applied to the following PK parameters; AUC0-t, AUC0-∞ and Cmax. Based on the linear regression model, the dose proportionality coefficient (slope) and its two-sided 90% confidence interval (CI) were estimated. Dose proportionality was declared if the 90% CI for the slope was completely contained in the following range16: 1+log(0.5)/log(r), 1+log(2)/log(r), where r is the high dose/low dose.

T1 sequence (Q01959 whole entry): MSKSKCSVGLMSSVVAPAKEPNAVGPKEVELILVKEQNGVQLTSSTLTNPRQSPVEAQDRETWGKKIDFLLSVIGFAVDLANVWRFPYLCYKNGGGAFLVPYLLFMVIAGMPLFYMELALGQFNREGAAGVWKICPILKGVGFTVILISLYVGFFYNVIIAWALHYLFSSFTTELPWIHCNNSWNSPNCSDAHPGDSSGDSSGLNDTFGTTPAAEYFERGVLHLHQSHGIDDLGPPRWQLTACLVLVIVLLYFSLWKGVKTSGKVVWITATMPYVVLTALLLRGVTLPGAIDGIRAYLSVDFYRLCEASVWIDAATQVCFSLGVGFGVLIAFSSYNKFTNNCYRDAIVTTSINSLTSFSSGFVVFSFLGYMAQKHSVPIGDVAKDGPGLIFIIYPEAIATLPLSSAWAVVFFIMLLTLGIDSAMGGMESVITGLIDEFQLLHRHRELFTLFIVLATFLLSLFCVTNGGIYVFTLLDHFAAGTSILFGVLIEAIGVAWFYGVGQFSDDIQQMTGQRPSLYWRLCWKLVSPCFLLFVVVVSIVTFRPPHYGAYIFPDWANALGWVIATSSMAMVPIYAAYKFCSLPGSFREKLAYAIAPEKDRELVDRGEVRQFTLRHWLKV

## COc1cc2ccc(O[C@@H]3C[C@H]4CC[C@@H](C3)N4)cc2oc1=O [IP2015, exo-7-[(8-azabicyclo[3.2.1]octan-3-yl)oxy]-3-methoxy-chromen-2-one]
[1]
  IC50: 1.44 nM
[2]; 1, 3, 10, 30 mg/kg s.c., 60 min prior to 5% formalin
  flinches in P1, interphase and P2: reduced the prevalence of flinches; also recorded: robust dose-dependent inhibition
[2]; 10 or 30 mg/kg s.c., all rats
  observation in rats of the formalin test: spontaneous erections and/or ejaculations
[2]; s.c., especially during interphase and 2nd phase, stated as likely
  minimal effective dose: < 3 mg/kg
[3]; 0.01 mg and 0.05 mg single oral dose, all subjects
  Plasma concentrations of IP2015: below the LLOQ
[3]; 0.2 mg single oral dose
  subjects with plasma concentrations below the LLOQ: 3/7
[3]; read-out: tmax (range across all dose levels)
  Tmax: 1 to 6 h
[3]; range of medians across doses, read-out: Median tmax
  Tmax: 2.25 to 5 h
[3]; 0.6 mg, calculated for 1/6 subjects, read-out: mean t½ (converted)
  half-life: 14.5 h
[3]; 1.8 mg, calculated for 3/6 subjects, read-out: mean t½ (converted)
  half-life: 16.1 h
[3]; 5.4 mg to 16.2 mg doses, range of means, read-out: mean T½
  half-life: 23.1 to 26.3 h
